Experimental data from US20240391926A1, “SPIROINDOLINONE COMPOUNDS AS Kv1.3 POTASSIUM SHAKER CHANNEL BLOCKERS” (D.E. Shaw Research, LLC, priority 2021, published 2024).

Experiments:
hERG channel = molecular target: T1, hERG channel (Homo sapiens, UniProt Q12809); test: hERG electrophysiology, automated whole-cell patch clamp (Patchliner) in CHO-K1 cells stably expressing hERG; format: cell-based; details: 30 nM-100 μM
T1 construct: expressed in transfected cells
Method: This assay is used to evaluate the disclosed compounds' inhibition activities against the hERG channel.
CHO-K1 cells stably expressing hERG were grown in Ham's F-12 Medium with glutamine containing 10% heat-inactivated FBS, 1% penicillin/streptomycin, hygromycin (100 μg/ml) and G418 (100 μg/ml). Cells were grown in culture flasks at 37° C. in a 5% CO2-humidified incubator.
The cells were bathed in an extracellular solution containing 140 mM NaCl, 4 mM KCl, 2 mM CaCl2), 1 mM MgCl2, 5 mM Glucose, 10 mM HEPES; pH adjusted to 7.4 with NaOH; 295-305 mOsm. The internal solution contained 50 mM KCl, 10 mM NaCl, 60 mM KF, 20 mM EGTA, 10 mM HEPES; pH adjusted to 7.2 with KOH; 285 mOsm. All compounds were dissolved in DMSO at 30 mM. Compound stock solutions were freshly diluted with external solution to concentrations of 30 nM, 100 nM, 300 nM, 1 μM, 3 μM, 10 μM, 30 μM and 100 μM. The highest content of DMSO (0.3%) was present in 100 μM.
The voltage protocol (see Table B) was designed to simulate voltage changes during a cardiac action potential with a 300 ms depolarization to +20 mV (analogous to the plateau phase of the cardiac action potential), a repolarization for 300 ms to −50 mV (inducing a tail current) and a final step to the holding potential of −80 mV. The pulse frequency was 0.3 Hz. Control (compound-free) and compound pulse trains for each compound concentration applied contained 70 pulses.
Whole-cell current recordings and compound application were enabled by means of an automated patch clamp platform Patchliner (Nanion). EPC 10 patch clamp amplifier (HEKA) along with Patchmaster software (HEKA Elektronik Dr. Schulze GmbH) was used for data acquisition. Data were sampled at 10 kHz without filtering. Increasing compound concentrations were applied consecutively to the same cell without washouts in between.
AUC and PEAK values were obtained with Patchmaster (HEKA Elektronik Dr. Schulze GmbH). To determine IC50 the last single pulse in the pulse train corresponding to a given compound concentration was used. Obtained AUC and PEAK values in the presence of compound were normalized to control values in the absence of compound. Using Origin (OridinLab), IC50 was derived from data fit to Hill equation: Icompound/Icontrol=(100−A)/(1+([compound]/IC50)nH)+A, where IC50 is the concentration at which current inhibition is half-maximal, [compound] is the applied compound concentration, A is the fraction of current that is not blocked and nH is the Hill coefficient.

Kv1.3 potassium channel = molecular target: T2, Kv1.3 potassium channel (Homo sapiens, UniProt P22001); test: Kv1.3 potassium channel blocker activity, automated whole-cell patch clamp (Patchliner) in CHO-K1 cells stably expressing Kv1.3; format: cell-based; details: 30 nM-100 μM
T2 construct: expressed in transfected cells
T2 sequence (P22001 whole entry): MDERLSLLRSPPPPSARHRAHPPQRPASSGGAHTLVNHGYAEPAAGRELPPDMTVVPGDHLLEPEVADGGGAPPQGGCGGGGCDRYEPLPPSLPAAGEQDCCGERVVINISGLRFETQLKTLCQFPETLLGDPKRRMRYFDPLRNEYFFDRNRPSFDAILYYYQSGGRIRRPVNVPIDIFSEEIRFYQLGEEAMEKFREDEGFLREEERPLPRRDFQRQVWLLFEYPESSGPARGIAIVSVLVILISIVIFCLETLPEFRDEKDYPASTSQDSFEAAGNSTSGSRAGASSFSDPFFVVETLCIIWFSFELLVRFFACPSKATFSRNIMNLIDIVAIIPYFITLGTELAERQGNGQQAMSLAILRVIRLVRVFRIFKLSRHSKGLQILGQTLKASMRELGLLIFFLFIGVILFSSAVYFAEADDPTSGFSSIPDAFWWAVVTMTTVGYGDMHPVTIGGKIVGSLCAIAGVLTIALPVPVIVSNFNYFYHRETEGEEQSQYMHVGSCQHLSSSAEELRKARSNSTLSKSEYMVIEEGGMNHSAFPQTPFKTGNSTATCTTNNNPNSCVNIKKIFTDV
In short: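 Whole-cell automated patch clamp in CHO-K1 cells, pH 7.4 external/7.2 internal; 100 ms steps from −90 to +40 mV at 0.1 Hz, 20-pulse trains. Cumulative 30 nM–100 μM on one cell, ≤10 s per concentration; last-pulse current normalized to control, IC50 from Hill fit.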

T1 sequence (Q12809 whole entry): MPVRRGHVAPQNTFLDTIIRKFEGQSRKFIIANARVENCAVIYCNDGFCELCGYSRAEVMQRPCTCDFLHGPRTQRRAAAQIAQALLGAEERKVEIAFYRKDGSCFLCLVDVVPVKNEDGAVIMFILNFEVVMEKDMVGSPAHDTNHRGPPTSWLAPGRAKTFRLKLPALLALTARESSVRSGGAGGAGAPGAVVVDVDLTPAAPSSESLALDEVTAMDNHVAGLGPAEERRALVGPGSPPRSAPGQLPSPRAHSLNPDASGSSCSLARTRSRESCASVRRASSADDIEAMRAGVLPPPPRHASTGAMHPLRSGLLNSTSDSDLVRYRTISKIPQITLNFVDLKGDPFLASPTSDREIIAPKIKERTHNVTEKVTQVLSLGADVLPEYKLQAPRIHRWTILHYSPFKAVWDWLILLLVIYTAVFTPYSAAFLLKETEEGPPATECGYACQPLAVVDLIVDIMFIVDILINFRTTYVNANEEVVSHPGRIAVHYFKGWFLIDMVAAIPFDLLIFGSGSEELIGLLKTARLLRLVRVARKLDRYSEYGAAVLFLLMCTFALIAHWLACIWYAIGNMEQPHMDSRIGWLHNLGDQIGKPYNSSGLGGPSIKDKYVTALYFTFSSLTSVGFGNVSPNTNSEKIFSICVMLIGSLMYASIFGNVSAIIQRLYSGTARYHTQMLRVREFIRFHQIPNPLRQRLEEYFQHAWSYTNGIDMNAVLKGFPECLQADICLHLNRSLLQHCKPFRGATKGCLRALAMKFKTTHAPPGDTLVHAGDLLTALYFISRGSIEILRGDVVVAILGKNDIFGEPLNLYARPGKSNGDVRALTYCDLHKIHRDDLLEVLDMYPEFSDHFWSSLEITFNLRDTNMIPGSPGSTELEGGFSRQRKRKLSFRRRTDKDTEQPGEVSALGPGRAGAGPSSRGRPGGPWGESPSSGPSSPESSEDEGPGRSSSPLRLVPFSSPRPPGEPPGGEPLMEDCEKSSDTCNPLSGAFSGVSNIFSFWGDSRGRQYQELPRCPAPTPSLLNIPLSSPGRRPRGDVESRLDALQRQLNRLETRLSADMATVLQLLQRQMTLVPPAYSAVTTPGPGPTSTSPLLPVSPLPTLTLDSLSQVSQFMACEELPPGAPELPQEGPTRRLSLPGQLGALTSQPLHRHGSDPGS

Compound | IC50 (hERG channel) [µM] | IC50 (Kv1.3 potassium channel) [µM]
O=C(CO)N1CC[C@]2(C1)C(=O)Nc1c2cc(Cl)c(Cl)c1Cl [Compound 121, (3S)-5,6,7-trichloro-1′-(2-hydroxyacetyl)-1H-spiro[indole-3,3′-pyrrolidin]-2-one] | > 10 | < 0.3
O=C([C@@H]1CC[C@@H](O)[C@H](O)C1)N1CC[C@]2(C1)C(=O)Nc1cc(Cl)c(Cl)cc12 (single isomer, unassigned; isomer 2) [Compound 104] | > 100 | < 0.3
O=C1Nc2cc(Cl)c(Cl)cc2[C@]12CCN(C(=O)[C@H]1C[C@](O)(CO)C1)C2 [Compound 93, (3S)-5,6-dichloro-1′-[(1r,3r)-3-hydroxy-3-(hydroxymethyl)cyclobutanecarbonyl]-1H-spiro[indole-3,3′-pyrrolidin]-2-one] | > 100 | < 1
O=C(c1ccnc(CO)c1)N1CC[C@]2(C1)C(=O)Nc1cc(Cl)c(Cl)cc12 [Compound 67, (S)-5,6-dichloro-1′-(2-(hydroxymethyl)isonicotinoyl)spiro[indoline-3,3′-pyrrolidin]-2-one] | > 100 | < 1
Cc1cc2c(cc1Cl)[C@]1(CCN(C(=O)CO)C1)C(=O)N2 [Compound 120, (S)-5-chloro-1′-(2-hydroxyacetyl)-6-methylspiro[indoline-3,3′-pyrrolidin]-2-one] | > 100 | < 3
O=C([C@H]1CC[C@H](O)C1)N1CC[C@]2(C1)C(=O)Nc1cc(Cl)c(Cl)cc12 (single isomer, unassigned; isomer 1) [Compound 63] | > 30 | < 1
O=C(C1CCN(CCO)C1)N1CC[C@]2(C1)C(=O)Nc1cc(Cl)c(Cl)cc12 (single isomer, unassigned; isomer 1) [Compound 37] | > 100 | < 0.3
O=C([C@H]1CN[C@H](CO)C1)N1CC[C@]2(C1)C(=O)Nc1cc(Cl)c(Cl)cc12 [Compound 114, (3S)-5,6-dichloro-1′-[(3R,5S)-5-(hydroxymethyl)pyrrolidine-3-carbonyl]-1H-spiro[indole-3,3′-pyrrolidin]-2-one] | > 100 | < 0.3
O=C([C@@H]1CN[C@H](CO)C1)N1CC[C@]2(C1)C(=O)Nc1cc(Cl)c(Cl)cc12 [Compound 113, (3S)-5,6-dichloro-1-[(3S,53)-5-(hydroxymethyl)pyrrolidine-3-carbonyl]-1H-spiro[indole-3,3-pyrrolidin]-2-one] | > 100 | < 0.1
O=C(N1CC[C@]2(C1)C(=O)Nc1cc(Cl)c(Cl)cc12)[C@]1(F)CCCNC1 [Compound 49, (S)-5,6-dichloro-1′-((S)-3-fluoropiperidine-3-carbonyl)spiro[indoline-3,3′-pyrrolidin]-2-one] | > 3 | < 0.3
O=C([C@H]1C[C@@H](O)[C@@H](O)C1)N1CC[C@]2(C1)C(=O)Nc1cc(Cl)c(Cl)cc12 [Compound 102, (3S)-5,6-dichloro-1′-[(1R,3R,43)-3,4-dihydroxycyclopentanecarbonyl]-1H-spiro[indole-3,3′-pyrrolidin]-2-one] | > 100 | < 1
COC[C@H]1C[C@H](C(=O)N2CC[C@]3(C2)C(=O)Nc2cc(Cl)c(Cl)cc23)CN1 [Compound 112, (S)-5,6-dichloro-1′-((3S,5R)-5-(methoxymethyl)pyrrolidine-3-carbonyl)spiro[indoline-3,3′-pyrrolidin]-2-one] | > 100 | < 0.3
O=C1Nc2cc(Cl)c(Cl)cc2[C@]12CCN(C(=O)[C@H]1C[C@@](O)(CO)C1)C2 [Compound 94, (3S)-5,6-dichloro-1′-[(1s,3s)-3-hydroxy-3-(hydroxymethyl)cyclobutanecarbonyl]-1H-spiro[indole-3,3′-pyrrolidin]-2-one] | > 100 | < 1
O=C([C@@H]1CCNC1)N1CC[C@]2(C1)C(=O)Nc1cc(Cl)c(Cl)cc12 [Compound 14, (S)-5,6-dichloro-1′-((R)-pyrrolidine-3-carbonyl)spiro[indoline-3,3′-pyrrolidin]-2-one] | > 100 | < 0.3
O=C([C@H]1CN[C@@H](CO)C1)N1CC[C@]2(C1)C(=O)Nc1cc(Cl)c(Cl)cc12 [Compound 116, (S)-5,6-dichloro-1′-((3R,5R)-5-(hydroxymethyl)pyrrolidine-3-carbonyl)spiro[indoline-3,3′-pyrrolidin]-2-one] | > 100 | < 0.1
O=C(CCCO)N1CC[C@]2(C1)C(=O)Nc1cc(Cl)c(Cl)cc12 [Compound 56, (S)-5,6-dichloro-1′-(4-hydroxybutanoyl)spiro[indoline-3,3′-pyrrolidin]-2-one] | > 100 | < 3
COC[C@@H]1C[C@H](C(=O)N2CC[C@]3(C2)C(=O)Nc2cc(Cl)c(Cl)cc23)CN1 [Compound 109, (3S)-5,6-dichloro-1′-[(3S,5S)-5-(methoxymethyl)pyrrolidine-3-carbonyl]-1H-spiro[indole-3,3′-pyrrolidin]-2-one] | > 30 | < 1
O=C([C@@H]1CN[C@@H](CO)C1)N1CC[C@]2(C1)C(=O)Nc1cc(Cl)c(Cl)cc12 [Compound 115, (S)-5,6-dichloro-1′-((3S,5R)-5-(hydroxymethyl)pyrrolidine-3-carbonyl)spiro[indoline-3,3′-pyrrolidin]-2-one] | > 100 | < 0.1
C[C@H]1NCC[C@@H]1C(=O)N1CC[C@]2(C1)C(=O)Nc1cc(Cl)c(Cl)cc12 (relative stereo) [Compound 40, (S)-5,6-dichloro-1′-((2S,3R)-rel-2-methylpyrrolidine-3-carbonyl)spiro[indoline-3,3′-pyrrolidin]-2-one isomer 2] | > 100 | < 0.3
Cc1[nH]ncc1C(=O)N1CC[C@]2(C1)C(=O)Nc1cc(Cl)c(Cl)cc12 [Compound 71, (S)-5,6-dichloro-1′-(5-methyl-1H-pyrazol-4-carbonyl)spiro[indoline-3,3′-pyrrolidin]-2-one] | > 30 | < 1
O=C(CO)N1CC[C@]2(C1)C(=O)Nc1cc(Cl)c(Cl)cc12 [Compound 6, (S)-5,6-dichloro-1′-(2-hydroxyacetyl)spiro[indoline-3,3′-pyrrolidin]-2-one] | > 100 | < 1
C[C@@H]1NCC[C@H]1C(=O)N1CC[C@]2(C1)C(=O)Nc1cc(Cl)c(Cl)cc12 (single isomer, unassigned; isomer 1) [Compound 39] | > 100 | < 0.3
NCC(=O)N1CC[C@]2(C1)C(=O)Nc1cc(Cl)c(Cl)cc12 [Compound 5, (S)-5,6-dichloro-1′-glycylspiro[indoline-3,3′-pyrrolidin]-2-one] | > 30 | < 1
O=C(C[C@H]1CCNC1)N1CC[C@]2(C1)C(=O)Nc1cc(Cl)c(Cl)cc12 [Compound 62, (S)-5,6-dichloro-1′-(2-((R)-pyrrolidin-3-yl)acetyl)spiro[indoline-3,3′-pyrrolidin]-2-one] | > 100 | < 0.3
NCCC(=O)N1CC[C@]2(C1)C(=O)Nc1cc(Cl)c(Cl)cc12 [Compound 9, (S)-1′-(3-aminopropanoyl)-5,6-dichlorospiro[indoline-3,3′-pyrrolidin]-2-one] | > 100 | < 1
O=C(C1C[C@@H](O)[C@H](O)C1)N1CC[C@]2(C1)C(=O)Nc1cc(Cl)c(Cl)cc12 (single isomer, unassigned; isomer 1) [Compound 105] | > 100 | < 0.3
O=C([C@H]1CNC[C@H]1O)N1CC[C@]2(C1)C(=O)Nc1cc(Cl)c(Cl)cc12 (single isomer, unassigned) [Compound 2] | > 100 | < 0.3
O=C([C@H]1CCNC1)N1CC[C@]2(C1)C(=O)Nc1cc(Cl)c(Cl)cc12 [Compound 15, (S)-5,6-dichloro-1′-((S)-pyrrolidine-3-carbonyl)spiro[indoline-3,3′-pyrrolidin]-2-one] | > 100 | < 1
O=C(C1CNC1)N1CC[C@]2(C1)C(=O)Nc1cc(Cl)c(Cl)cc12 [Compound 8, (S)-1′-(azetidine-3-carbonyl)-5,6-dichlorospiro[indoline-3,3′-pyrrolidin]-2-one] | > 100 | < 1
